Reference: patent US20230089867A1, “CYCLIC PENTAMER COMPOUNDS AS PROPROTEIN CONVERTASE SUBTILISIN/KEXIN TYPE 9 (PCSK9) INHIBITORS FOR THE TREATMENT OF METABOLIC DISORDER” (Novartis AG, priority 2018, published 2023)

Target: human PCSK9 (Homo sapiens, UniProt Q8NBP7)
Assay: PCSK9 ligand binding TR-FRET assay (interference with binding of human PCSK9 to human LDLR)
Conditions: for Max % inhibition: PCSK9 FRET assay, efficacy (Amax), 100% = 1 uM unlabeled human PCSK9, 0% = DMSO; for IC50: TR-FRET, human PCSK9 Alexa Fluor 647 / human LDLR extracellular domain-Europium Kryptate, read-out: PCSK9 FRET Assay IC50
In short: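 Threefold compound dilutions were pre-incubated 30 min with PCSK9, after which 4 nM Europium Kryptate-tagged human LDLR ectodomain was added for a further 2 h.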

Chain of human PCSK9 (Q8NBP7 153-692): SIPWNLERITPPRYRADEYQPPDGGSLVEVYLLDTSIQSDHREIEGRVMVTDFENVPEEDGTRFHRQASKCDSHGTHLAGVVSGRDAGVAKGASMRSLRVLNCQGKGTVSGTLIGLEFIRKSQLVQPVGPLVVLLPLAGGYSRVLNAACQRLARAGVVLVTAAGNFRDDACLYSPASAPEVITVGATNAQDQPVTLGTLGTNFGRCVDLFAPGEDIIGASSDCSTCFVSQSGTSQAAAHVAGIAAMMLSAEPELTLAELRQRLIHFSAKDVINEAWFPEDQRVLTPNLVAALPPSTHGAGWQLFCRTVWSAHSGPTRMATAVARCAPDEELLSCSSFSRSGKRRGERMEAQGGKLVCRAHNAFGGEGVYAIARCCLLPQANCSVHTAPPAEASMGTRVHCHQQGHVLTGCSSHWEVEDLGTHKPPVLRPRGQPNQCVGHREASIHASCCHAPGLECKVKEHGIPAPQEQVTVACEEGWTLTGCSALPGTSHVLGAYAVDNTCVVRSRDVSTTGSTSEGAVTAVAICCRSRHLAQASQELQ
Chain of human PCSK9 (Q8NBP7 31-152 partner limits assumed): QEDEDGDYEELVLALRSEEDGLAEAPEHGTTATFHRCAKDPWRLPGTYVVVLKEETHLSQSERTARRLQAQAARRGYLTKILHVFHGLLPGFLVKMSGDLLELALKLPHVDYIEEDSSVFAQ

| SMILES | Max % inhibition [%] | IC50 [nM] |
| --- | --- | --- |
| CC[C@H]1C(=O)N[C@@H](COC)C(=O)N(C)[C@@H](Cc2ccc(Cl)cc2F)CC(=O)NC[C@H](C)N(C)C(=O)[C@H](Cc2ccccc2)CC(=O)N1Cc1ccc(Cl)cc1Oc1ccc(-c2cnc(CN(C)C)n2C)cc1 [Compound 248, (2S,5S,8S,13S,16R)-16-benzyl-1-(4-chloro-2-(4-(2-((dimethylamino)methyl)-1-methyl-1H-imidazol-5-yl)phenoxy)benzyl)-8-(4-chloro-2-fluorobenzyl)-2-ethyl-5-(methoxymethyl)-7,13,14-trimethyl-1,4,7,11,14-pentaazacyclooctadecane-3,6,10,15,18-pentaone] | 106.74 | 2.2 |
| COC[C@@H]1NC(=O)[C@H](C)N(Cc2ccc(Cl)cc2Oc2ccc(-c3cnc4n3CC[N+]3(CCCC3)C4)cc2)C(=O)C[C@@H](Cc2ccccc2)C(=O)N(C)[C@@H](C)CNC(=O)C[C@H](Cc2ccc(Cl)cc2)N(C)C1=O.Cl.[Cl-] [Compound 249, 3-(4-(2-(((2S,5S,8S,13S,16R)-16-benzyl-8-(4-chlorobenzyl)-5-(methoxymethyl)-2,7,13,14-tetramethyl-3,6,10,15,18-pentaoxo-1,4,7,11,14-pentaazacyclooctadecan-1-yl)methyl)-5-chlorophenoxy)phenyl)-5,6-dihydro-8H-spiro[imidazo[1,2-a]pyrazine-7,1′-pyrrolidin]-7-ium chloride hydrochloride] | 98.36 | 2.3 |
| COC[C@@H]1NC(=O)[C@H](CCN(C)C)N(Cc2ccc(Cl)cc2Oc2ccc(-c3cnc(CN(C)C)n3C)cc2)C(=O)C[C@@H](Cc2ccccn2)C(=O)N(C)[C@H]2CCCC[C@@H]2NC(=O)C[C@H](Cc2ccc(Cl)cc2)N(C)C1=O [Compound 250, (4S,7S,10S,14R,16aS,20aS)-11-(4-chloro-2-(4-(2-((dimethylamino)methyl)-1-methyl-1H-imidazol-5-yl)phenoxy)benzyl)-4-(4-chlorobenzyl)-10-(2-(dimethylamino)ethyl)-7-(methoxymethyl)-5,16-dimethyl-14-(pyridin-2-ylmethyl)hexadecahydrobenzo[l][1,4,7,11,14]pentaazacyclooctadecine-2,6,9,12,15(3H)-pentaone] | 84.24 | 0.4 |
| COC[C@@H]1NC(=O)[C@H](CCCN2CCCC2)N(Cc2ccc(Cl)cc2Oc2ccc(-c3cnc(CN(C)C)n3C)cc2)C(=O)C[C@@H](Cc2ccccc2)C(=O)N(C)[C@H]2CCCC[C@@H]2NC(=O)C[C@H](Cc2ccc(Cl)cc2)N(C)C1=O [Compound 251, (4S,7S,10S,14R,16aS,20aS)-14-benzyl-11-(4-chloro-2-(4-(2-((dimethylamino)methyl)-1-methyl-1H-imidazol-5-yl)phenoxy)benzyl)-4-(4-chlorobenzyl)-7-(methoxymethyl)-5,16-dimethyl-10-(3-(pyrrolidin-1-yl)propyl)hexadecahydrobenzo[l][1,4,7,11,14]pentaazacyclooctadecine-2,6,9,12,15(3H)-pentaone] | 99.24 | 0.8 |
| COC[C@@H]1NC(=O)[C@H](CCCN2CCOCC2)N(Cc2ccc(Cl)cc2Oc2ccc(-c3cnc(CN4CCCC4)n3C)cc2)C(=O)C[C@@H](Cc2ccccc2)C(=O)N(C)[C@H]2CCCC[C@@H]2NC(=O)C[C@H](Cc2ccc(Cl)cc2)N(C)C1=O [Compound 252, (4S,7S,10S,14R,16aS,20aS)-14-benzyl-11-(4-chloro-2-(4-(1-methyl-2-(pyrrolidin-1-ylmethyl)-1H-imidazol-5-yl)phenoxy)benzyl)-4-(4-chlorobenzyl)-7-(methoxymethyl)-5,16-dimethyl-10-(3-morpholinopropyl)hexadecahydrobenzo[l][1,4,7,11,14]pentaazacyclooctadecine-2,6,9,12,15(3H)-pentaone] | 92.00 | 2.1 |
| COC[C@@H]1NC(=O)[C@H](C)N(Cc2ccc(Cl)cc2Oc2ccc(-c3cnc(CN(C)C)n3C)cc2)C(=O)C[C@@H](Cn2cccn2)C(=O)N(C)[C@H]2CCCC[C@@H]2NC(=O)C[C@H](Cc2ccc(Cl)cc2)N(C)C1=O [Compound 253, (4S,7S,10S,16aS,20aS)-14-((1H-pyrazol-1-yl)methyl)-11-(4-chloro-2-(4-(2-((dimethylamino)methyl)-1-methyl-1H-imidazol-5-yl)phenoxy)benzyl)-4-(4-chlorobenzyl)-7-(methoxymethyl)-5,10,16-trimethylhexadecahydrobenzo[l][1,4,7,11,14]pentaazacyclooctadecine-2,6,9,12,15(3H)-pentaone] | 98.40 | 1.5 |
| COC[C@@H]1NC(=O)[C@H](CCCN2CC(F)(F)C(F)(F)C2)N(Cc2ccc(Cl)cc2Oc2ccc(-c3cnc(CN(C)C)n3C)cc2)C(=O)C[C@@H](Cc2ccccc2)C(=O)N(C)[C@H]2CCCC[C@@H]2NC(=O)C[C@H](Cc2ccc(Cl)cc2)N(C)C1=O [Compound 254, (4S,7S,10S,14R,16aS,20aS)-14-benzyl-11-(4-chloro-2-(4-(2-((dimethylamino)methyl)-1-methyl-1H-imidazol-5-yl)phenoxy)benzyl)-4-(4-chlorobenzyl)-7-(methoxy-methyl)-5,16-dimethyl-10-(3-(3,3,4,4-tetrafluoropyrrolidin-1-yl)propyl)hexadecahydro-benzo[l][1,4,7,11,14]pentaazacyclooctadecine-2,6,9,12,15(3H)-pentaone] | 102.70 | 3 |
| COC[C@@H]1NC(=O)[C@H](C)N(Cc2ccc(Cl)cc2Oc2ccc(-c3cnc(CN(C)C)n3C)cc2)C(=O)C[C@@H](C)C(=O)N(C)[C@@H](CC(C)C)CNC(=O)C[C@H](Cc2ccc(Cl)cc2)N(C)C1=O [Compound 255, (5S,8S,13S,16R)-1-(4-chloro-2-(4-(2-((dimethylamino)methyl)-1-methyl-1H-imidazol-5-yl)phenoxy)benzyl)-8-(4-chlorobenzyl)-13-isobutyl-5-(methoxymethyl)-2,7,14,16-tetramethyl-1,4,7,11,14-pentaazacyclooctadecane-3,6,10,15,18-pentaone] | 64.95 | 19.7 |
| COC[C@@H]1NC(=O)[C@H](C)N(Cc2ccc(Cl)cc2Oc2ccc(-c3cnc(CN4CCCC4)n3C)cc2)C(=O)C[C@@H](Cc2ccccc2)C(=O)N(C)[C@@H](C)CNC(=O)C[C@H](Cc2ccc(Cl)cc2)NC1=O [Compound 256, (2S,5S,8S,13S,16R)-16-benzyl-1-(4-chloro-2-(4-(1-methyl-2-(pyrrolidin-1-ylmethyl)-1H-imidazol-5-yl)phenoxy)benzyl)-8-(4-chlorobenzyl)-5-(methoxymethyl)-2,13,14-trimethyl-1,4,7,11,14-pentaazacyclooctadecane-3,6,10,15,18-pentaone] | 79.36 | 52.4 |
| C[C@H]1CNC(=O)C[C@H](Cc2ccc(Cl)cc2)N(C)C(=O)[C@H](CCF)NC(=O)[C@H](C)N(Cc2ccc(Cl)cc2Oc2ccc(-c3cnc(CN4CCCC4)n3C)cc2)C(=O)C[C@@H](Cc2ccccc2)C(=O)N1C [Compound 257, (2S,5S,8S,13S,16R)-16-benzyl-1-(4-chloro-2-(4-(1-methyl-2-(pyrrolidin-1-ylmethyl)-1H-imidazol-5-yl)phenoxy)benzyl)-8-(4-chlorobenzyl)-5-(2-fluoroethyl)-2,7,13,14-tetramethyl-1,4,7,11,14-pentaazacyclooctadecane-3,6,10,15,18-pentaone] | 50.23 | 21.3 |
| COC[C@@H]1NC(=O)[C@H](C)N(Cc2ccc(Cl)cc2Oc2ccc(-c3cnc(CN(C)C)n3C)cc2)C(=O)C[C@@H](Cc2c(F)ccc(F)c2F)C(=O)N(C)[C@@H](C)CNC(=O)C[C@H](Cc2ccc(Cl)cc2)N(C)C1=O [Compound 258, (2S,5S,8S,13S,16R)-1-(4-chloro-2-(4-(2-((dimethylamino)methyl)-1-methyl-1H-imidazol-5-yl)phenoxy)benzyl)-8-(4-chlorobenzyl)-5-(methoxymethyl)-2,7,13,14-tetramethyl-16-(2,3,6-trifluorobenzyl)-1,4,7,11,14-pentaazacyclooctadecane-3,6,10,15,18-pentaone] | 98.94 | 4.3 |
| COC[C@@H]1NC(=O)[C@H](C)N(Cc2ccc(Cl)cc2Oc2ccc(-n3cnc(CN4CCCC4)c3C)cc2)C(=O)C[C@@H](Cc2ccccc2)C(=O)N(C)[C@@H](C)CNC(=O)C[C@H](Cc2ccc(Cl)cc2)N(C)C1=O [Compound 259, (2S,5S,8S,13S,16R)-16-benzyl-1-(4-chloro-2-(4-(5-methyl-4-(pyrrolidin-1-ylmethyl)-1H-imidazol-1-yl)phenoxy)benzyl)-8-(4-chlorobenzyl)-5-(methoxymethyl)-2,7,13,14-tetramethyl-1,4,7,11,14-pentaazacyclooctadecane-3,6,10,15,18-pentaone] | 108.15 | 3.2 |
| Cc1c(CN2CCCC2)ncn1-c1ccc(Oc2cc(Cl)ccc2CN2C(=O)C[C@@H](Cc3ccccc3)C(=O)N(C)[C@H]3CCCC[C@@H]3NC(=O)C[C@H](Cc3ccc(Cl)cc3)N(C)C(=O)[C@H](CO)NC(=O)[C@@H]2C)cc1 [Compound 260, (4S,7S,10S,14R,16aS,20aS)-14-benzyl-11-(4-chloro-2-(4-(5-methyl-4-(pyrrolidin-1-ylmethyl)-1H-imidazol-1-yl)phenoxy)benzyl)-4-(4-chlorobenzyl)-7-(hydroxymethyl)-5,10,16-trimethylhexadecahydrobenzo[l][1,4,7,11,14]pentaazacyclooctadecine-2,6,9,12,15(3H)-pentaone] | 109.05 | 2.1 |
| COC[C@@H]1NC(=O)[C@H](C)N(Cc2ccc(Cl)cc2Oc2ccc(-c3cnc([C@@H](C)N(C)C)n3C)cc2)C(=O)C[C@@H](Cc2ccccc2)C(=O)N(C)[C@@H](C)[C@H](C)NC(=O)C[C@H](Cc2ccc(Cl)cc2)N(C)C1=O [Compound 261, (2S,5S,8S,12S,13S,16R)-16-benzyl-1-(4-chloro-2-(4-(2-((R)-1-(dimethylamino)ethyl)-1-methyl-1H-imidazol-5-yl)phenoxy)benzyl)-8-(4-chlorobenzyl)-5-(methoxymethyl)-2,7,12,13,14-pentamethyl-1,4,7,11,14-pentaazacyclooctadecane-3,6,10,15,18-pentaone] | 111.41 | 2 |
